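Here, GI50 denotes the concentration required for 50% inhibition of growth. TGI: concentration producing complete growth inhibition.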
How the values were obtained:
Test in all cases: DTP human tumour cell line panel, 384-well format
A549 NSCLC = tested on: A549 NSCLC
NCI-H522 lung = tested on: NCI-H522 lung
OVCAR-4 ovarian = tested on: OVCAR-4 ovarian
RPMI-8226 leukemia = tested on: RPMI-8226 leukemia
SK-MEL-28 melanoma = tested on: SK-MEL-28 melanoma
HS 578T breast = tested on: HS 578T breast
EKVX NSCLC = tested on: EKVX NSCLC
CCRF-CEM leukemia = tested on: CCRF-CEM leukemia
ACHN renal = tested on: ACHN renal
IGROV1 ovarian = tested on: IGROV1 ovarian
786-0 renal = tested on: 786-0 renal
HCC-2998 colon = tested on: HCC-2998 colon
UACC-62 melanoma = tested on: UACC-62 melanoma

| Structure (SMILES) | GI50 (A549 NSCLC) [nM] | TGI (A549 NSCLC) [nM] | GI50 (NCI-H522 lung) [nM] | TGI (NCI-H522 lung) [nM] | GI50 (OVCAR-4 ovarian) [nM] | TGI (OVCAR-4 ovarian) [nM] | GI50 (RPMI-8226 leukemia) [nM] | TGI (RPMI-8226 leukemia) [nM] | GI50 (SK-MEL-28 melanoma) [nM] | TGI (SK-MEL-28 melanoma) [nM] | GI50 (HS 578T breast) [nM] | TGI (HS 578T breast) [nM] | GI50 (EKVX NSCLC) [nM] | TGI (EKVX NSCLC) [nM] | GI50 (CCRF-CEM leukemia) [nM] | TGI (CCRF-CEM leukemia) [nM] | GI50 (ACHN renal) [nM] | TGI (ACHN renal) [nM] | GI50 (IGROV1 ovarian) [nM] | TGI (IGROV1 ovarian) [nM] | also measured |
| --- | --- | --- | --- | --- | --- | --- | --- | --- | --- | --- | --- | --- | --- | --- | --- | --- | --- | --- | --- | --- | --- |
| C=CC(=O)Nc1cc(Nc2nccc(-c3cn(C)c4ccccc34)n2)c(OC)cc1N(C)CCN(C)C | 1340 | 3590 | 49.5 | 843 | 2020 | 3540 | 980 | 2230 | 1660 | 3040 | 1550 | 3040 | 617 | 2170 | 1390 | 2690 | 453 | 2210 | 440 | 1880 | GI50 (786-0 renal): 1310 nM; TGI (786-0 renal): 2600 nM; GI50 (HCC-2998 colon): 767 nM; TGI (HCC-2998 colon): 2000 nM; GI50 (UACC-62 melanoma): 1640 nM; TGI (UACC-62 melanoma): 3020 nM |
| Cn1cc(-c2cc3c(N4CCN(c5ncc([C@@](C)(N)c6ccc(F)cc6)cn5)CC4)ncnn3c2)cn1 | 4210 | 36500 | 2410 | 23300 | 2960 | 12200 | 1590 | 3210 | 6900 | 19700 | 1750 | 5830 | 2970 | 31600 | 2780 | 10200 | 3700 | 13900 | 4450 | 16700 | GI50 (786-0 renal): 1760 nM; TGI (786-0 renal): 3370 nM; GI50 (HCC-2998 colon): 2150 nM; TGI (HCC-2998 colon): 3820 nM; GI50 (UACC-62 melanoma): 4420 nM; TGI (UACC-62 melanoma): 17800 nM |

— PubChem BioAssay (NCI)
